Measurements from PubChem BioAssay (NCI).
Where “and” joins values, the source holds several entries; their conditions need not be identical. Identical values can stand only once.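 Interpolation was linear, between the two tested concentrations surrounding the appropriate level; five concentrations were tested over 48 hours in 96-well plates. The concentration for 50% growth inhibition is given as GI50. TGI: concentration producing complete growth inhibition.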

Tests used:
Assay in all cases: DTP human tumour cell line panel, 48 h
MALME-3M melanoma = system: MALME-3M melanoma
UO-31 renal = system: UO-31 renal
786-0 renal = system: 786-0 renal
HT29 colon = system: HT29 colon
HOP-62 NSCLC = system: HOP-62 NSCLC
NCI-H522 lung = system: NCI-H522 lung
UACC-257 melanoma = system: UACC-257 melanoma
UACC-62 melanoma = system: UACC-62 melanoma
HCC-2998 colon = system: HCC-2998 colon
MOLT-4 leukemia = system: MOLT-4 leukemia

SMILES	TGI (MALME-3M melanoma)	TGI (UO-31 renal)	TGI (786-0 renal)	TGI (HT29 colon)	TGI (HOP-62 NSCLC) [µM]	TGI (NCI-H522 lung)	TGI (UACC-257 melanoma)	TGI (UACC-62 melanoma) [µM]	TGI (HCC-2998 colon) [µM]	TGI (MOLT-4 leukemia)	GI50 (HOP-62 NSCLC)	GI50 (MALME-3M melanoma) [µM]	GI50 (UO-31 renal) [µM]	GI50 (786-0 renal) [µM]	GI50 (UACC-257 melanoma) [µM]	GI50 (UACC-62 melanoma) [µM]	GI50 (HCC-2998 colon) [µM]	GI50 (HT29 colon)	GI50 (MOLT-4 leukemia) [µM]	GI50 (NCI-H522 lung) [µM]
COc1cc([C@@H]2c3cc4c(cc3[C@@H](OC3OC5COC(C)OC5C(O)C3O)[C@H]3COC(=O)[C@H]23)OCO4)cc(OC)c1O (stereo partly drawn)	72 µM [middle of 4 runs]	110 µM and 89.7 µM and 175 µM	43.3 µM and 28.1 µM and 9.35 µM	79.8 µM and 500 µM and 125 µM																
COc1cc2c(c3oc4c(O)cccc4c(=O)c13)CC(C(C)(O)CCl)O2 (stereo not drawn)	8.12 µM	4.9 µM	12.8 µM	15.9 µM	5.85	5.94 µM	6.79 µM	2.3	8.35											
CN(C)NC(=O)NC12CC3CC(CC(C3)C1)C2		> 100 µM	> 100 µM	> 100 µM		> 100 µM	> 100 µM	> 100		> 100 µM										
CC(=O)O[C@H]1CSC[C@@H](OC(C)=O)C1[N+](=O)[O-] (stereo partly drawn)	41.6 µM		36.5 µM	> 100 µM	> 100	36.8 µM	52 µM	> 100	> 100	78.7 µM										
Cc1ccc2nc(CN(CCN(Cc3nc4ccc(C)cc4[nH]3)Cc3nc4ccc(C)cc4[nH]3)Cc3nc4ccc(C)cc4[nH]3)[nH]c2c1	2.89 µM	3.14 µM	3.15 µM	3.2 µM	3.24		3.24 µM	3.1	3.18		1.83 µM	1.47	1.71	1.75	1.81	1.72	1.74	1.77 µM		
C=C1C(C)C2C(Cc3ccccc3)NC(=O)C23C(OC(C)=O)C=CC(C)(O)C(=O)C(C)C/C=C/C3C1O (stereo not drawn)	> 96.7 µM and 489 µM	1.62 µM and 14.3 µM	56.2 µM and > 120 µM	> 278 µM		27.3 µM and 36.4 µM	45.4 µM and 335 µM	> 285	> 500	78.3 µM and > 500 µM	0.0431 µM and 0.106 µM	61.7		2.05	26.3	29.4	> 500	0.0505 µM and 0.176 µM and 0.0663 µM	17.9	
O=C1c2ccccc2C(=O)c2c1ccc1c3ccccc3n(-c3ccccc3)c21	44.6 µM	55.1 µM	52.4 µM	29.2 µM	> 100	32.4 µM	41.7 µM	24.1	72.6	11.1 µM										
CCOC(=O)C(Oc1ccc(OC)c2c1C(=O)CCC2)c1ccccc1 (stereo not drawn)	> 100 µM	> 100 µM	> 100 µM	> 100 µM	> 100	> 100 µM	> 100 µM	> 100	> 100	> 100 µM										
C=C(CN1CCN(c2cc(C(F)(F)F)cc(C(F)(F)F)c2)CC1)c1ccc(C(=O)Nc2ccccc2N)cc1	47.9 µM	> 100 µM	86.5 µM	4.75 µM	> 100	> 100 µM	64.9 µM	> 100	26.4		16.2 µM	13.8	5.57	6.77	6.57	4.21	4.28	1.91 µM		5.21
CSc1ccc(-c2cn3ccsc3n2)cc1	> 72.6 µM	> 100 µM	> 100 µM	> 100 µM	> 100	> 89.5 µM	> 100 µM	> 100	> 100	> 100 µM	34.6 µM	22.1	7.95	32.3	28.7	25.7	20.9	33.3 µM	5.48	11.1
CCc1ccc([OH2+])c(C(=O)[O-])c1.CCc1ccc([OH2+])c(C(=O)[O-])c1.CCc1ccc([OH2+])c(C(=O)[O-])c1.CCc1ccc([OH2+])c(C(=O)[O-])c1.[Cu+2].[Cu+2]	> 100 µM	> 100 µM	> 100 µM	> 100 µM	> 100	> 100 µM	> 100 µM	> 100	> 100	> 100 µM	> 100 µM	> 100	> 100	> 100	> 100	70.5	64.8	44.7 µM	34.2	> 86
COc1ccccc1NC(=O)c1sc2ncn(CCOc3ccccc3)c(=O)c2c1C		> 50 µM	> 50 µM		> 50	> 50 µM	> 50 µM	> 50			15.6 µM		12.5	> 50	1.49	2.04				1.8
CC1=C(C(=S)Nc2ccc(Cl)c(C(=O)OC(C)C)c2)SCCO1	36.9 µM	32.8 µM	30.2 µM	32.6 µM		44.3 µM	47 µM	32.6	31.2	46.6 µM										
C=C1C(=O)C23C(O)CC4C(C)(C)CCC(O)C4(C)C2CC(OC(C)=O)C1[C@H]3O (stereo partly drawn)	9.42 µM	29.7 µM	6.82 µM		28.2	0.638 µM	8.38 µM		14.8	8.08 µM										
CN(N=O)c1ccc(/C=C/c2ccnc3ccccc23)cc1	> 100 µM	> 100 µM	> 100 µM	> 100 µM	> 100	> 100 µM	> 100 µM	> 100		> 100 µM										
NN=C1/C(=C\c2ccccc2)CCC/C1=C/c1ccccc1	81.1 µM	94.2 µM	> 100 µM		> 100	36.1 µM	> 100 µM	> 100	> 100	37.4 µM										
O=C(CC1(O)C(=O)Nc2ccc(Cl)cc21)c1ccc(C(=O)NCC2CCC3(CC2)OOC2(CCCCC2)OO3)cc1 (stereo not drawn)			1.86 µM	11.2 µM	2	1.37 µM	24.2 µM	27.6	21.4	5.09 µM	0.445 µM			0.535	6.48	5.05	4.27	3.19 µM	2.05	0.292
